Assay results reported in PubChem BioAssay AID192 (DTP/NCI, 2004).
Toxic doses and inconclusive results are not listed. Numbered stars: 1 amine (or outer) side, 2 acyl side, 3 side chain; on linkers, the order of the positions; unused ones are H or OH. Bridge positions count the residues as written; N and C are the ends. Square brackets hold non-standard residues; d marks the D form. Peptide text beside a SMILES is read from it. I, II: the chains in the order shown. Actinocin(1to9) = Cc1c2oc3c(C)ccc(C(=O)[*:2])c3nc-2c(C(=O)[*:1])c(N)c1=O; NMeV = CN[CH](C(=O)O)C(C)C; Sar = CNCC(=O)O

Tested on: BDF1 mice, B16 melanoma ip, median survival T/C
Experiment: NCI In Vivo Anticancer Drug Screen. Data for tumor model B16 Melanoma (intraperitoneal) in B6D2F1 (BDF1) mice
Conditions: endpoint: median survival time, higher = longer survival
How it was run: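 The ratio T/C compares compound-treated mice with vehicle-treated controls, using survival or tumor size as the endpoint in a transplantable tumor model.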

[1] = dose: 6.25 mg/kg/injection, schedule: Q01DX009 (ip), vehicle: saline
[2] = dose: 12.5 mg/kg/injection, schedule: Q01DX009 (ip), vehicle: saline
[3] = dose: 25.0 mg/kg/injection, schedule: Q01DX009 (ip), vehicle: saline
[4] = dose: 50.0 mg/kg/injection, schedule: Q01DX009 (ip), vehicle: saline
[5] = dose: 100.0 mg/kg/injection, schedule: Q01DX009 (ip), vehicle: Klucel (hydroxypropylcellulose) (HPC)
[6] = dose: 200.0 mg/kg/injection, schedule: Q01DX009 (ip), vehicle: Klucel (hydroxypropylcellulose) (HPC)
[7] = dose: 400.0 mg/kg/injection, schedule: Q01DX009 (ip), vehicle: Klucel (hydroxypropylcellulose) (HPC)
[8] = dose: 100.0 mg/kg/injection, schedule: Q01DX009 (ip), vehicle: saline
[9] = dose: 200.0 mg/kg/injection, schedule: Q01DX009 (ip), vehicle: saline
[10] = dose: 50.0 mg/kg/injection, schedule: Q01DX009 (ip), vehicle: saline with Tween-80
[11] = dose: 100.0 mg/kg/injection, schedule: Q01DX009 (ip), vehicle: saline with Tween-80
[12] = dose: 200.0 mg/kg/injection, schedule: Q01DX009 (ip), vehicle: saline with Tween-80

C[N+]1(C)CCCC1
T/C [1]: 111 % of control | T/C (dose: 6.25 mg/kg/injection, schedule: Q04DX003 (ip), vehicle: saline): 95 % of control | T/C [2]: 100 % of control | T/C (dose: 12.5 mg/kg/injection, schedule: Q04DX003 (ip), vehicle: saline): 95 % of control | T/C [3]: 91 % of control | T/C (dose: 25.0 mg/kg/injection, schedule: Q04DX003 (ip), vehicle: saline): 95 % of control

CCC(C)C1NC(=O)C(NC(=O)c2c3nc4c(C(=O)NC5C(=O)NC(C(C)C)C(=O)N6CCCC6C(=O)N(C)CC(=O)N(C)C(C(C)C)C(=O)OC5C)ccc(C)c4oc-3c(C)c(=O)c2N)C(C)OC(=O)C(C(C)C)N(C)C(=O)CN(C)C(=O)C2CCCN2C1=O (stereo not given) (I: TIP[Sar][NMeV] / II: TVP[Sar][NMeV]; ester I:1-I:C, II:1-II:C; linker I:N-II:N via Actinocin(1to9); configuration not given here)
T/C (dose: 0.2 mg/kg/injection, schedule: Q01DX001 (ip), vehicle: water): 116 % of control | T/C (dose: 12.5 micrograms/kg/injection, schedule: Q01DX009 (ip), vehicle: water): 117 % of control | T/C (dose: 25.0 micrograms/kg/injection, schedule: Q01DX009 (ip), vehicle: water): 116 % of control | T/C (dose: 75.0 micrograms/kg/injection, schedule: Q04DX003 (ip), vehicle: water): 119 % of control

NC(CSC(c1ccccc1)(c1ccccc1)c1ccccc1)C(=O)O (stereo not given)
T/C (dose: 3.13 mg/kg/injection, schedule: Q01DX009 (ip), vehicle: saline): 109 % of control | T/C [1]: 118 % of control | T/C [2]: 120 % of control | T/C [4]: 150 % of control

CCC(C)(O)CCc1ccccc1 (stereo not given)
T/C [5]: 113 % of control | T/C [6]: 113 % of control | T/C [7]: 100 % of control

Cc1cccc(C)c1NC(=O)NC(C)C
T/C [5]: 87 % of control | T/C [6]: 115 % of control | T/C [7]: 118 % of control

CCOc1ccc(NC(=O)C=O)cc1
T/C [5]: 100 % of control | T/C [6]: 90 % of control | T/C [7]: 90 % of control

COC(=O)C(N)CSCc1ccccc1 (stereo not given)
T/C [8]: 95 % of control | T/C [9]: 106 % of control

COc1cc(C2C3=C(CC(C)(C)CC3=O)N(CC(=O)O)C3=C2C(=O)CC(C)(C)C3)ccc1O
T/C (dose: 50.0 mg/kg/injection, schedule: Q01DX009 (ip), vehicle: water): 103 % of control | T/C (dose: 100.0 mg/kg/injection, schedule: Q01DX009 (ip), vehicle: water): 101 % of control | T/C (dose: 200.0 mg/kg/injection, schedule: Q01DX009 (ip), vehicle: water): 115 % of control

CCC(C)C(C#N)(CCN(CC)CC)c1ccccc1 (stereo not given)
T/C (dose: 25.0 mg/kg/injection, schedule: Q01DX009 (ip), vehicle: Klucel (hydroxypropylcellulose) (HPC)): 121 % of control | T/C (dose: 50.0 mg/kg/injection, schedule: Q01DX009 (ip), vehicle: Klucel (hydroxypropylcellulose) (HPC)): 118 % of control | T/C [5]: 109 % of control

CCN(CC)CC(C)(C)CO
T/C [10]: 99 % of control | T/C [11]: 101 % of control | T/C [12]: 89 % of control

O=C(Nc1cccc(Cl)c1)Nc1cc(Cl)ccc1Cl
T/C [11]: 100 % of control | T/C [12]: 89 % of control | T/C (dose: 400.0 mg/kg/injection, schedule: Q01DX009 (ip), vehicle: saline with Tween-80): 86 % of control

C=C1[C@@H](O)[C@]2(O)OC[C@@]34[C@H]1[C@@H](OC(=O)C(C)CC)C(=O)O[C@@H]3C[C@H]1C(C)=CC(=O)[C@@H](O)[C@]1(C)[C@@H]24 (stereo not given in full)
T/C (dose: 0.5 mg/kg/injection, schedule: Q01DX009 (ip), vehicle: saline with Tween-80): 116 % of control | T/C (dose: 1.0 mg/kg/injection, schedule: Q01DX009 (ip), vehicle: saline with Tween-80): 118 % of control

O=P(O)(O)OCC(O)CCl (stereo not given)
T/C [4]: 110 % of control | T/C [8]: 103 % of control | T/C [9]: 103 % of control

C=C(Br)CNS(C)(=O)=O
T/C [1]: 120 % of control | T/C [2]: 110 % of control | T/C [3]: 113 % of control

Cc1n(Cc2ccccc2)c2c([n+]1C)C(=O)c1ccccc1C2=O
T/C (dose: 0.13 mg/kg/injection, schedule: Q01DX009 (ip), vehicle: saline): 95 % of control | T/C (dose: 0.25 mg/kg/injection, schedule: Q01DX009 (ip), vehicle: saline): 95 % of control | T/C (dose: 0.5 mg/kg/injection, schedule: Q01DX009 (ip), vehicle: saline): 95 % of control | T/C (dose: 1.0 mg/kg/injection, schedule: Q01DX009 (ip), vehicle: saline): 87 % of control

CCN(CC)c1nc(Cl)nc(NC(C)C)n1
T/C [10]: 95 % of control | T/C [11]: 97 % of control | T/C [12]: 89 % of control

O=C(COc1ccc(Cl)cc1)Nc1ccccc1F
T/C (dose: 25.0 mg/kg/injection, schedule: Q01DX009 (ip), vehicle: saline with Tween-80): 102 % of control | T/C [10]: 92 % of control | T/C [11]: 92 % of control
